Measured values taken from patent US5635593A (priority 1995, dated 1997).
Numbered stars: 1 amine (or outer) side, 2 acyl side, 3 side chain; on linkers, the order of the positions; unused ones are H or OH. Bridge positions count the residues as written; N and C are the ends. Square brackets hold non-standard residues; d marks the D form. Peptide text beside a SMILES is read from it. I, II: the chains in the order shown. BMH = O=C1CC([*:1])C(=O)N1CCCCCCN1C(=O)CC([*:2])C1=O; Oic = O=C(O)[C@@H]1C[C@@H]2CCCC[C@@H]2N1; Hyp = O=C(O)[C@@H]1C[C@@H](O)CN1; dTic = O=C(O)[C@H]1Cc2ccccc2CN1

Columns and labels:
BK2 -receptor = target: T1, BK2 -receptor (Rattus norvegicus, UniProt P25023); assay: rat uterus (RU) in vitro, antagonism of BK
T1 construct: guinea-pig ileum (GPI), rat uterus (RU) and rabbit jugular vein (RJV); from tissue; host or cells: rat uterus
T1 sequence (P25023 1-396): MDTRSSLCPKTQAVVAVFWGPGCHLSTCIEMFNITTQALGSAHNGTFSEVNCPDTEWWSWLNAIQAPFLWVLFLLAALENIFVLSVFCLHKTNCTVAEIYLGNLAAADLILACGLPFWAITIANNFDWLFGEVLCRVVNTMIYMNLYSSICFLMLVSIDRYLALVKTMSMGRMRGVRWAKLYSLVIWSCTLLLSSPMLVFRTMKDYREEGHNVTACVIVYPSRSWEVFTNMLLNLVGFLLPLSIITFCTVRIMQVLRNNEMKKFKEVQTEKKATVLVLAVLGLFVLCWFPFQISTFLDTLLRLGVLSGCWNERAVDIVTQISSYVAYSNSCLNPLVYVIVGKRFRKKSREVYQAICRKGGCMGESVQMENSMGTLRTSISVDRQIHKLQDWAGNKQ
Procedure: Thus, in vitro studies were performed on standard assay systems, namely, guinea-pig ileum (GPI), rat uterus (RU) and rabbit jugular vein (RJV). […] The potency of each compound was assessed as a pA2 value according to the method of Arunlakshana & Schild, Br. J. Pharmacol. Chemother., 14:48-58 (1959). The pA2 can be defined as the negative logarithm of the molar concentration of the antagonist in the presence of which the potency of the agonist is reduced two-fold, i.e., twice the amount of agonist is required to produce a given response in the presence of, than in the absence of, the antagonist. A high potency of antagonism is indicated by a high pA2 value. i.e., a low concentration of antagonist is effective.
The percentage recovery (% Rec) was also determined for compounds with respect to each assay.
With respect to duration of activity, it is noted that after exposure to the highest concentration of antagonist, each tissue was washed extensively and then assessed for recovery from the antagonist effect.
Potency in the rat uterus assay was assessed as described above and pA2 values determined.

BK2 receptor = target: T2, BK2 receptor (Oryctolagus cuniculus, UniProt Q28642); assay: blood pressure response to BK2 agonist in LPS-pretreated rabbits; type: in vivo, rabbit; design: key to observed antagonist activity BK2, 1 / observed antagonist activity BK2, 3 / observed antagonist activity BK2, 10: +: complete blockade of the blood pressure response to the appropriate agonist; ±: partial blockade; -: no observable effect at the dose indicated; settings: for observed antagonist activity BK2, 1: 1 μg kg^-1 min^-1; for observed antagonist activity BK2, 1 / observed antagonist activity BK2, 3 / observed antagonist activity BK2, 10: rabbits given LPS (10 μg) 20 hours before; for observed antagonist activity BK2, 3: 3 μg kg^-1 min^-1; for observed antagonist activity BK2, 10: 10 μg kg^-1 min^-1
T2 construct: from tissue; host or cells: whole animal (rabbit, LPS-pretreated), blood pressure response
T2 sequence (Q28642 1-367): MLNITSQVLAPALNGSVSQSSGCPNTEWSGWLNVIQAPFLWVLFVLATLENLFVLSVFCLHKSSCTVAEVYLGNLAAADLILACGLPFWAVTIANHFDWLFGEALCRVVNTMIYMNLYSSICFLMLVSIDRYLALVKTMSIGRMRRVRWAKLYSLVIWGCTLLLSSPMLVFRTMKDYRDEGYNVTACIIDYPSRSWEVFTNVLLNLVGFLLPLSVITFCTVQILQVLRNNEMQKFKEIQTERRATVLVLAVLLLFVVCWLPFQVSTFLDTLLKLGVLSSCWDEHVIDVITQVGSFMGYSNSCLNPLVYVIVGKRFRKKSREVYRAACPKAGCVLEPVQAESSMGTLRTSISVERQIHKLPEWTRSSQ
Source text: (§1) That heterodimeric constructs block the activities attributable to two different receptor populations simultaneously when administered to an intact animal has been known using a standard assay of BK2 and BK1 receptor activity (see, deBlois, Bouthillier, and Marceau, Brit. J. Pharm., 103, 1057-1066, 1991). In normal rabbits, no changes in systemic arterial blood pressure can be detected in response to challenges with BK1 receptor agonists. There is, however, a predictable and reproducible response to BK2 agonists constituatively present. After stimulation with LPS BK1 receptor activity will develop over time such that profound responses to doses of BK1 agonists that were previously inconsequential in nature are observed after a 3-4 hour period. Responses to BK2 agonists are unchanged in these animals. At this point, one can test directly the ability to block both BK1 and BK2 mediated reductions in systemic blood pressure simultaneously with a heterodimeric antagonist.
(§2) FIGS. 8a, b and c comprise actual blood pressure traces from a series of experiments designed to illustrate the ability of a representative heterodimer (CP-0364) to block both BK1 - and BK2 - mediated hypotensive responses simultaneously.
(§3) The expected antagonist activity is based on the data summarized in Tables K and L. The in vivo experimental data reported are qualitative measurements of antagonist activity at three different doses (1, 3 and 10 μg kg^-1 min^-1) in rabbits given a sub-lethal dose of LPS (10 μg), 20 hours before initiation of the experiment.

BK1 receptor = target: T3, BK1 receptor (Oryctolagus cuniculus, UniProt P48748); assay: blood pressure response to BK1 agonist in LPS-pretreated rabbits; type: in vivo, rabbit; design: from tissue; host or cells: whole animal (rabbit, LPS-pretreated), blood pressure response; key to observed antagonist activity BK1, 1 / observed antagonist activity BK1, 3 / observed antagonist activity BK1, 10: +: complete blockade of the blood pressure response to the appropriate agonist; ±: partial blockade; -: no observable effect at the dose indicated; settings: for observed antagonist activity BK1, 1: 1 μg kg^-1 min^-1; for observed antagonist activity BK1, 1 / observed antagonist activity BK1, 3 / observed antagonist activity BK1, 10: rabbits given LPS (10 μg) 20 hours before; for observed antagonist activity BK1, 3: 3 μg kg^-1 min^-1; for observed antagonist activity BK1, 10: 10 μg kg^-1 min^-1
T3 sequence (P48748 1-352): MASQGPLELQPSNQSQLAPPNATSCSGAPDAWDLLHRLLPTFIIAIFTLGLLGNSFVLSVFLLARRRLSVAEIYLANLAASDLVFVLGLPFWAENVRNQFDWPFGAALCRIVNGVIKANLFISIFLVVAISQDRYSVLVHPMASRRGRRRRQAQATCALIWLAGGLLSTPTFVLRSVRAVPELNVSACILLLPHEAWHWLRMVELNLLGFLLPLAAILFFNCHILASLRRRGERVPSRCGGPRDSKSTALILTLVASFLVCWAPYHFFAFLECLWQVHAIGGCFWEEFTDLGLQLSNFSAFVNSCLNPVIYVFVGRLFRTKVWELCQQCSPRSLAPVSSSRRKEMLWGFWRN
Source text: as §1, §2, §3

[1] = rabbits after endotoxin pre-treatment, agonist i.v. bolus

Structure (SMILES)	observed antagonist activity BK2, 1 (BK2 receptor)	observed antagonist activity BK2, 3 (BK2 receptor)	observed antagonist activity BK2, 10 (BK2 receptor)	observed antagonist activity BK1, 1 (BK1 receptor)	observed antagonist activity BK1, 3 (BK1 receptor)	observed antagonist activity BK1, 10 (BK1 receptor)	other results
CC(C)C[C@H](NC(=O)[C@@H](Cc1ccccc1)NC(=O)[C@H](CO)NC(=O)[C@H](CSC1CC(=O)N(CCCCCCN2C(=O)CC(SC[C@H](NC(=O)CNC(=O)[C@@H]3C[C@@H](O)CN3C(=O)[C@@H]3CCCN3C(=O)[C@H](CCCNC(=N)N)NC(=O)[C@H](N)CCCNC(=N)N)C(=O)N[C@@H](CO)C(=O)N[C@H](Cc3ccccc3)C(=O)N[C@@H](CC(C)C)C(=O)N[C@@H](CCCNC(=N)N)C(=O)O)C2=O)C1=O)NC(=O)CNC(=O)[C@@H]1C[C@@H](O)CN1C(=O)[C@@H]1CCCN1C(=O)[C@H](CCCNC(=N)N)NC(=O)[C@H](N)CCCNC(=N)N)C(=O)N[C@@H](CCCNC(=N)N)C(=O)O (some centres unmarked) [CP-0156] (HELM PEPTIDE1{[dR].R.P.[Hyp].G.C.S.[dF].L.R}|PEPTIDE2{[dR].R.P.[Hyp].G.C.S.[dF].L.R}|CHEM1{[O=C1CC([*:1])C(=O)N1CCCCCCN1C(=O)CC([*:2])C1=O]}$PEPTIDE1,CHEM1,6:R3-1:R1|PEPTIDE2,CHEM1,6:R3-1:R2$$$V2.0)							% REC rat uterus (BK2 -receptor; percentage recovery after washing): 75%
CC(C)C[C@H](NC(=O)[C@@H](Cc1ccccc1)NC(=O)[C@H](CSC1CC(=O)N(CCN2C(=O)CC(SC[C@H](NC(=O)[C@H](Cc3ccccc3)NC(=O)CNC(=O)[C@@H]3C[C@@H](O)CN3C(=O)[C@@H]3CCCN3C(=O)[C@H](CCCNC(=N)N)NC(=O)[C@H](N)CCCNC(=N)N)C(=O)N[C@H](Cc3ccccc3)C(=O)N[C@@H](CC(C)C)C(=O)N[C@@H](CCCNC(=N)N)C(=O)O)C2=O)C1=O)NC(=O)[C@H](Cc1ccccc1)NC(=O)CNC(=O)[C@@H]1C[C@@H](O)CN1C(=O)[C@@H]1CCCN1C(=O)[C@H](CCCNC(=N)N)NC(=O)[C@H](N)CCCNC(=N)N)C(=O)N[C@@H](CCCNC(=N)N)C(=O)O (some centres unmarked) [CP-0162] (HELM PEPTIDE1{[dR].R.P.[Hyp].G.F.C.[dF].L.R}|PEPTIDE2{[dR].R.P.[Hyp].G.F.C.[dF].L.R}|CHEM1{[O=C1CC([*:1])C(=O)N1CCN1C(=O)CC([*:2])C1=O]}$PEPTIDE1,CHEM1,7:R3-1:R1|PEPTIDE2,CHEM1,7:R3-1:R2$$$V2.0)							Kb (BK2 -receptor; against BK, read-out: pA2 rat uterus (BK2) (converted)): 3.98 nM
CC(C)C[C@H](NC(=O)[C@@H](Cc1ccccc1)NC(=O)[C@H](CSC1CC(=O)N(CCCCN2C(=O)CC(SC[C@H](NC(=O)[C@H](Cc3ccccc3)NC(=O)CNC(=O)[C@@H]3C[C@@H](O)CN3C(=O)[C@@H]3CCCN3C(=O)[C@H](CCCNC(=N)N)NC(=O)[C@H](N)CCCNC(=N)N)C(=O)N[C@H](Cc3ccccc3)C(=O)N[C@@H](CC(C)C)C(=O)N[C@@H](CCCNC(=N)N)C(=O)O)C2=O)C1=O)NC(=O)[C@H](Cc1ccccc1)NC(=O)CNC(=O)[C@@H]1C[C@@H](O)CN1C(=O)[C@@H]1CCCN1C(=O)[C@H](CCCNC(=N)N)NC(=O)[C@H](N)CCCNC(=N)N)C(=O)N[C@@H](CCCNC(=N)N)C(=O)O (some centres unmarked) [CP-0209] (HELM PEPTIDE1{[dR].R.P.[Hyp].G.F.C.[dF].L.R}|PEPTIDE2{[dR].R.P.[Hyp].G.F.C.[dF].L.R}|CHEM1{[O=C1CC([*:1])C(=O)N1CCCCN1C(=O)CC([*:2])C1=O]}$PEPTIDE1,CHEM1,7:R3-1:R1|PEPTIDE2,CHEM1,7:R3-1:R2$$$V2.0)							pA2 rat uterus (BK2) (BK2 -receptor; against BK): 8.2 ± 0.2
CC(C)C[C@H](NC(=O)[C@@H]1CCCN1C(=O)[C@H](CO)NC(=O)[C@H](Cc1ccccc1)NC(=O)CNC(=O)[C@@H]1CCCN1C(=O)[C@@H]1CCCN1C(=O)[C@H](CCCNC(=N)N)NC(=O)[C@@H](N)CCCCN)C(=O)O [CP-0298, des ARG^9-[LYS^0, LEU^8]-BK, reference compound]	-	-	-	+	+	+	
CC(C)C[C@H](NC(=O)[C@@H]1CCCN1C(=O)[C@H](CO)NC(=O)[C@H](Cc1ccccc1)NC(=O)CNC(=O)[C@@H]1C[C@@H](O)CN1C(=O)[C@@H]1CCCN1C(=O)[C@H](CSC1CC(=O)N(CCCCCCN2C(=O)CC(SC[C@H](NC(=O)[C@H](Cc3ccccc3)NC(=O)CNC(=O)[C@@H]3C[C@@H](O)CN3C(=O)[C@@H]3CCCN3C(=O)[C@H](CCCNC(=N)N)NC(=O)[C@H](N)CCCNC(=N)N)C(=O)N[C@H](Cc3ccccc3)C(=O)N[C@@H](CC(C)C)C(=O)N[C@@H](CCCNC(=N)N)C(=O)O)C2=O)C1=O)NC(=O)[C@H](N)CCCNC(=N)N)C(=O)O (some centres unmarked) [CP-0364] (HELM PEPTIDE1{[dR].R.P.[Hyp].G.F.C.[dF].L.R}|PEPTIDE2{[dR].C.P.[Hyp].G.F.S.P.L}|CHEM1{[O=C1CC([*:1])C(=O)N1CCCCCCN1C(=O)CC([*:2])C1=O]}$PEPTIDE1,CHEM1,7:R3-1:R1|PEPTIDE2,CHEM1,2:R3-1:R2$$$V2.0; N-terminus and C-terminus assumed)	+	+	+	+	+	+	block of BK2-mediated hypotensive response (FIG. 8) (BK2 receptor; [1]): capable of blocking the response profile to both agonists simultaneously; block of BK1-mediated hypotensive response (FIG. 8) (BK1 receptor; [1]): capable of blocking the response profile to both agonists simultaneously
N=C(N)NCCC[C@@H](N)C(=O)N[C@@H](CCCNC(=N)N)C(=O)N1CCC[C@H]1C(=O)N1C[C@H](O)C[C@H]1C(=O)NCC(=O)N[C@@H](Cc1ccccc1)C(=O)N[C@@H](CSC1CC(=O)N(CCCCCCN2C(=O)CC(SC[C@H](NC(=O)[C@H](N)CCCNC(=N)N)C(=O)N3CCC[C@H]3C(=O)N3C[C@H](O)C[C@H]3C(=O)NCC(=O)N[C@@H](Cc3ccccc3)C(=O)N[C@@H](CO)C(=O)N3Cc4ccccc4C[C@@H]3C(=O)N3[C@H](C(=O)O)C[C@@H]4CCCC[C@@H]43)C2=O)C1=O)C(=O)N1Cc2ccccc2C[C@@H]1C(=O)N1[C@H](C(=O)N[C@@H](CCCNC(=N)N)C(=O)O)C[C@@H]2CCCC[C@@H]21 (some centres unmarked) [CP-0365] (I: H-[dR]RP[Hyp]GFC[dTic][Oic]R-OH / II: H-[dR]CP[Hyp]GFS[dTic][Oic]-OH; linker I:7-II:2 via BMH; N-terminus and C-terminus assumed)	-	+	+	-	+	+	
